We go through 13 compounds from PubChem BioAssay (NCI).

Test systems include SF-268 CNS; NCI-H460 lung; UACC-257 melanoma; HL-60(TB) leukemia; KM12 colon; MALME-3M melanoma; HOP-92 NSCLC; UO-31 renal; SK-OV-3 ovarian; A549 NSCLC.
Common to all, as to assay: inhibition of tumour cell growth, NCI panel, 48 h

Molecules are shown by their SMILES.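 Protocol summary: plate cells (96-well), add compound at 5 concentrations, incubate 48 h, interpolate endpoints linearly. At the GI50, growth is halved. TGI denotes the concentration required for complete inhibition of growth.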

In the case of `CC(=O)[O-].CC(=O)[O-].CC(=O)[O-].CC(=O)[O-].[Mo+2].[Mo+2]`, the GI50 in the assay on SF-268 CNS, in the assay with NCI-H460 lung, in the assay with UACC-257 melanoma, in the assay with HL-60(TB) leukemia, in the assay with KM12 colon and with MALME-3M melanoma was > 100 µM each time. Besides, the GI50 in the assay on HOP-92 NSCLC was 39.9 µM; in the assay on UO-31 renal, > 100 µM; in the assay on SK-OV-3 ovarian, > 100 µM; with A549 NSCLC, > 100 µM. Further, the TGI in the assay with SF-268 CNS, in the assay with NCI-H460 lung, in the assay with UACC-257 melanoma, in the assay on HL-60(TB) leukemia, in the assay on KM12 colon and with MALME-3M melanoma was > 100 µM throughout. Also, the TGI in the assay on HOP-92 NSCLC, in the assay with UO-31 renal, in the assay on SK-OV-3 ovarian and with A549 NSCLC was > 100 µM throughout.

Take `CC1(C)OC2COC3(CNO)OC(C)(C)OC3C2O1` (centres undefined): the TGI is > 100 µM in the assay with SF-268 CNS; > 100 µM in the assay with NCI-H460 lung; > 100 µM in the assay with UACC-257 melanoma; 30.2 µM in the assay with HL-60(TB) leukemia; > 100 µM in the assay on KM12 colon; > 100 µM in the assay on MALME-3M melanoma. For the same compound, the TGI with HOP-92 NSCLC, in the assay on UO-31 renal, with SK-OV-3 ovarian and in the assay with A549 NSCLC was > 100 µM throughout.

Regarding `COc1ccc(Nc2nc3ccccc3nc2-c2cccs2)cc1`, the TGI with SF-268 CNS, with NCI-H460 lung, in the assay with UACC-257 melanoma, with HL-60(TB) leukemia, with KM12 colon and with MALME-3M melanoma was > 100 µM throughout. In addition, the TGI in the assay with HOP-92 NSCLC, with UO-31 renal, in the assay on SK-OV-3 ovarian and in the assay on A549 NSCLC was > 100 µM throughout.

For the compound `Cc1ccccc1Nc1nc2c(s1)C(=O)c1ccccc1C2=O`, the TGI in the assay with SF-268 CNS was 13 µM; in the assay on NCI-H460 lung, 25.3 µM; in the assay with UACC-257 melanoma, 12.4 µM; in the assay on HL-60(TB) leukemia it was > 100 µM; in the assay on KM12 colon, 23.4 µM; with MALME-3M melanoma it was 28.2 µM. Also, the TGI came to 25.1 µM with HOP-92 NSCLC, 14.4 µM in the assay with UO-31 renal, 38 µM in the assay on SK-OV-3 ovarian and 27.9 µM in the assay on A549 NSCLC.

Consider `OC(CN1CC1)C(O)CN1CC1` (centres undefined), for which the GI50 in the assay on SF-268 CNS, in the assay with NCI-H460 lung, in the assay with UACC-257 melanoma, with HL-60(TB) leukemia, in the assay with KM12 colon and with MALME-3M melanoma was > 50 µg/mL throughout. Further, the GI50 in the assay with HOP-92 NSCLC, with UO-31 renal and in the assay with A549 NSCLC was > 50 µg/mL in each case. Moreover, the TGI with SF-268 CNS, with NCI-H460 lung, in the assay with UACC-257 melanoma, in the assay on HL-60(TB) leukemia, in the assay with KM12 colon and in the assay with MALME-3M melanoma was > 50 µg/mL in each case. The TGI in the assay with HOP-92 NSCLC, with UO-31 renal and in the assay on A549 NSCLC was > 50 µg/mL throughout.

Take `CC(CC(=O)Nc1ccc(NC(=O)CC(C)N=NC(N)=S)cc1)N=NC(N)=S` (centres undefined): the TGI in the assay on SF-268 CNS, with NCI-H460 lung, in the assay with UACC-257 melanoma, in the assay with HL-60(TB) leukemia, with KM12 colon and with MALME-3M melanoma was > 100 µM throughout. For the same compound, the TGI in the assay with HOP-92 NSCLC, with UO-31 renal and with A549 NSCLC was > 100 µM each time.

`CC(C)c1ccccc1NC(=O)/C(Cl)=C1/Sc2ccccc2NC1=O`: the TGI in the assay with SF-268 CNS is > 100 µM; with NCI-H460 lung, > 100 µM; in the assay on HL-60(TB) leukemia it was 52.6 µM; in the assay on MALME-3M melanoma it was 80.7 µM; in the assay with HOP-92 NSCLC, > 100 µM; in the assay with UO-31 renal, > 100 µM. Besides, the TGI in the assay with SK-OV-3 ovarian is 66.6 µM; in the assay with A549 NSCLC, > 100 µM.

In the case of `O=C1C=C(O)c2[nH]c(=O)ccc2C1=O`, the TGI in the assay with SF-268 CNS, with NCI-H460 lung, in the assay on UACC-257 melanoma, in the assay on HL-60(TB) leukemia, with MALME-3M melanoma and in the assay on HOP-92 NSCLC was > 100 µM throughout. Also, the TGI in the assay with UO-31 renal, in the assay on SK-OV-3 ovarian and in the assay on A549 NSCLC was > 100 µM in each case.

For `O=c1c(Cl)c(Cl)cnn1CCc1ccncc1`, the TGI in the assay with SF-268 CNS worked out at 40.8 µM; in the assay on NCI-H460 lung, 37.8 µM; in the assay on UACC-257 melanoma, 34.1 µM; in the assay with HL-60(TB) leukemia it was 87.1 µM; with KM12 colon, 28.1 µM; in the assay with MALME-3M melanoma it was 39.6 µM. Besides, the values for the TGI in the assay with HOP-92 NSCLC, in the assay on UO-31 renal and with A549 NSCLC were 38.5 µM, 36.2 µM and > 100 µM, respectively.

As to `CC1(Cc2ccccc2)NC(=S)NC1=O` (centres undefined), the TGI in the assay on SF-268 CNS, in the assay on NCI-H460 lung, with UACC-257 melanoma, in the assay with HL-60(TB) leukemia, in the assay on KM12 colon and in the assay on MALME-3M melanoma was > 100 µM each time. The TGI in the assay on HOP-92 NSCLC, in the assay on UO-31 renal and in the assay with A549 NSCLC was > 100 µM each time.

As for `Cc1ccc2c(c1)Sc1ccc(N=NN(C)C)cc1N2C`, the TGI in the assay on SF-268 CNS, in the assay on NCI-H460 lung, in the assay on HL-60(TB) leukemia, with KM12 colon, with MALME-3M melanoma and in the assay on HOP-92 NSCLC was > 100 µM throughout. Moreover, the TGI in the assay with UO-31 renal, in the assay with SK-OV-3 ovarian and with A549 NSCLC was > 100 µM in each case.

For `O=C1C2=C(c3ccccc31)C(c1ccccc1Cl)N1C(=O)CCSC1=N2` (centres undefined), the TGI with SF-268 CNS, with UACC-257 melanoma, in the assay with HL-60(TB) leukemia, in the assay on KM12 colon, with MALME-3M melanoma and in the assay on HOP-92 NSCLC was > 100 µM each time. Moreover, the TGI with UO-31 renal, in the assay with SK-OV-3 ovarian and with A549 NSCLC was > 100 µM throughout.

As for `C=CCO/N=C/c1cc(NC(=S)c2ccoc2C)ccc1Cl`, the TGI with SF-268 CNS worked out at 36 µM; with UACC-257 melanoma, 34 µM; with HL-60(TB) leukemia, 46 µM; in the assay on KM12 colon, 25.5 µM; with MALME-3M melanoma, 31.3 µM; in the assay on HOP-92 NSCLC it was 42.3 µM. Besides, the TGI with UO-31 renal is 19.4 µM; with SK-OV-3 ovarian, 36.2 µM; in the assay on A549 NSCLC, > 100 µM.
